This note sets out measurements from patent publication US20250381110A1, “SKIN CARE COMPOSITION AND METHOD OF USING THE SAME” (THE PROCTER & GAMBLE COMPANY, priority 2024, published 2025).

In test [1] the test system is primary human dermal fibroblasts (HDFs). Nature of the test: Mitophagy assay, mt-mKeima reporter, fluorescence microscopy. The format is cell-based. As to the method: Primary human dermal fibroblasts (HDFs) were cultured in DMEM supplemented with 10 percent FBS, 100 units per milliliter penicillin/streptomycin, and 2 millimolar L-glutamine in a humidified atmosphere containing 5 percent carbon dioxide at 37 degrees Celsius. Stable expression of mt-mKeima was achieved through retroviral transduction (Kelly et al.). Cells stably expressing mt-mKeima were seeded in a 35 mm glass bottom dish (MatTek). The live-cell mt-Keima signal was obtained via widefield microscopy using the DMi8 and 2 filtersets to obtain the acidic (561 nm excitation, “red”) and pH-neutral (480 nm, “green”) mKeima signals. Using FIJI/ImageJ, a macro was applied to the mt-mKeima signal to extract mitolysosomes. In detail, images were masked by applying MaxEntropy threshold to the images obtained with 561 nm excitation to remove low mt-mKeima red signal and background. Then, images were generated by subtracting the signal of green mKeima from that of red mKeima. Resulting images were binarised with the MaxEntropy threshold algorithm to extract mitolysosomes. Mitophagy events were determined as the number of puncta per cell. Cells stably expressing pSu9-Halo-GFP seeded in a 35 glass bottom dish (MatTek) were stained with 1 μM Halo TMR ligand (Promega, G8251) for 48 h. Fluorescence images were obtained using an LSM700 confocal microscope (Zeiss). The number of mitolysosomes (GFP-Halo+puncta) per cell was quantified using proprietary plugin in Fiji/ImageJ. Both mKeima and pSu9-Halo-GFP reporters directly visualize frequency of mitophagy events (e.g., mitochondria delivered by autophagolysosomes to lysosomes for degradation) (Kelly et al.).

A further test relates to Ki67. The experiment in a line: Immunostaining for Ki67 (percentage of Ki67-positive cells). The format is cell-based, human. To be noted: HDFs; 30 μM for 5 h prior to IR; 11 days after IR. As to the method:
Immunofluorescence analyses were performed as described previously (Carroll et al.). In brief, cells were seeded on coverslips in 24-well plates and fixed in 4% formaldehyde in PBS for 10 min at room temperature followed by permeabilization in 0.5% Triton X-100 (Sigma-Aldrich) in PBS for 4 min at room temperature (Ki67 and p21) or in methanol for 4 min at −20° C. (LC3 and p62). Cells were then blocked for 1 h in 5% normal goat serum (Sigma-Aldrich) in PBS at room temperature and incubated with primary antibodies overnight at 4° C. Cells were washed three times and incubated with the appropriate secondary antibodies for 1 h at room temperature (Thermo Fisher Scientific, A31556 and A21235, 1:1000). Cells were washed, and coverslips were mounted on slides with Prolong Gold antifade mountant with DAPI (Invitrogen). Fluorescence images were obtained as described above. The following primary antibodies were used: rabbit anti-Ki67 (Abcam, ab 15580, 1:250), rabbit anti-p21 (CST, 2947, 1:1000), mouse anti-LC3 (NanoTools, 0260-100, 1:200) and rabbit anti-p62 (MBL, PM045, 1:500).

Test [2] relates to human dermal fibroblasts (HDFs). The experiment in a line: Mitochondrial mass by Mitotracker Green staining. The format is cell-based. To be noted: HDFs from aged donors; 30 μM, 7 h. As to the method: The Seahorse XF Cell Mito Stress Test Kit (Agilent) was used to measure oxygen consumption rates in adult dermal fibroblasts. One day prior to the assay cells were seeded at either 4000 per well or 3000 per well. Where indicated, fibroblast plates were subjected to 20Gy IR 2 h before assay. […] HDFs were stained with 100 nM Mitotracker Green for mitochondrial density measurement. The Mito Stress Test was performed as per manufacturer's guidelines on a Seahorse XF96 Extracellular Flux analyser using previously optimized conditions. Following assay completion, cells were fixed in 4% PFA for 20 minutes. PFA was then removed, and cells were washed twice with PBS. Following fixation, cells were stained with Hoescht nucleic acid stain (Invitrogen) for 10 min before being washed twice in PBS. Fluorescence was subsequently measured using the PHERAstar FSX plate reader (BMG LABTECH) at 350/460 nm for normalization purposes. Following normalization, OCR measurements were interpreted from data generated from the Agilent Seahorse Wave software version 2.6.3.5. Basal respiration data in unstressed conditions is presented. OCR measurements were further normalised to mitochondrial density to obtain ATP production (pmol/min/mitochondria).

The test system is the same in test [3]. The experiment in a line: Seahorse analysis, ATP production normalized to MitoTracker density. The format is cell-based. Particulars: HDFs from aged donors; 30 μM, 7 h. As to the method:
The Seahorse XF Cell Mito Stress Test Kit (Agilent) was used to measure oxygen consumption rates in adult dermal fibroblasts. One day prior to the assay cells were seeded at either 4000 per well or 3000 per well. Where indicated, fibroblast plates were subjected to 20Gy IR 2 h before assay. STOCKIN ([…]) or vehicle (DMSO) treatments were performed 7 h before Seahorse assays. HDFs were stained with 100 nM Mitotracker Green for mitochondrial density measurement. The Mito Stress Test was performed as per manufacturer's guidelines on a Seahorse XF96 Extracellular Flux analyser using previously optimized conditions. Following assay completion, cells were fixed in 4% PFA for 20 minutes. PFA was then removed, and cells were washed twice with PBS. Following fixation, cells were stained with Hoescht nucleic acid stain (Invitrogen) for 10 min before being washed twice in PBS. Fluorescence was subsequently measured using the PHERAstar FSX plate reader (BMG LABTECH) at 350/460 nm for normalization purposes. Following normalization, OCR measurements were interpreted from data generated from the Agilent Seahorse Wave software version 2.6.3.5. Basal respiration data in unstressed conditions is presented. OCR measurements were further normalised to mitochondrial density to obtain ATP production (pmol/min/mitochondria).

The test system is the same in test [4]. Nature of the test: Cell motility assay. The format is cell-based. To be noted: HDFs from aged donors; 30 μM, 7 h. As to the method: HDFs were seeded in glass bottomed multiwell plates (Greiner, 662892), 24 h prior to imaging. Images were captured using a Zeiss CellDiscoverer 7 with a 5x/0.35NA lens with a 2× optovar using oblique mode brightfield with a Hamamatsu Fusion camera every 300 seconds for 5 h (1 ms exposure time), capturing 2 random fields per well. Cells were maintained at 37° C., 5% CO2 throughout experiments. 6 cells were analysed per field using the Manual Tracking plugin in FIJI/ImageJ, and shown as mean movement per cell recorded.

In a further test the test system is IL-6. The experiment in a line: SASP assessment, IL-6 mRNA by qPCR. The format is cell-based, human. As to the method: (§1) Quantibody Human Cytokine Arrays for 20 cytokines (RayBiotech; QAH-CYT-1) were performed using conditioned media collected from primary dermal fibroblasts culture. mRNA levels of human IL-6 and IL-8 were measured by quantitative polymerase chain reaction (qPCR. Total RNA was extracted using RNeasy Mini Kit (QIAGEN, 74104). From 500 ng of total RNA, first-strand complementary DNA (cDNA) was produced using SuperScript III reverse transcriptase (Invitrogen, 18080044). Quantitative PCR was performed in a StepOnePlus Real-Time PCR system (Applied Biosystems) using Power SYBR Green PCR Master Mix (Applied Biosystems, 4367659). mRNA levels were determined with the […] and normalised to GAPDH levels.
Background: Real-time PCR tracks product formation cycle by cycle.

The next test deals with IL-8. Nature of the test: SASP assessment, IL-8 mRNA by qPCR. It is filed as cell-based, human. Particulars: HDFs; 30 μM for 5 h prior to IR; 11 days after IR. As to the method: as §1
Where [5] appears, read: HDFs from aged donors, 30 μM, 7 h.

Each structure is given as a SMILES string.

Take `CC(=O)Oc1ccc(N2C(=O)C3C(Cc4ccccc4)NC4(C(=O)Nc5c4ccc(Cl)c5C)C3C2=O)cc1` (stereo not shown) [STOCKIN-57543]: the “functional mitophagy (mitophagy events)” value in test [1] (setting [5]) is “restoring functional mitophagy”. The “rescue of suppressed basal mitophagy in the absence of p62” value in test [1] (HDFs with p62 knockdown) is given as “unable to rescue the suppression of basal mitophagy”. Moreover, in test [1] (HDFs, 30 μM for 5 h prior to 20 Gy IR), the “IR-associated decrease in mitophagy” value is recorded as “preventing IR-associated decrease in mitophagy”. In the test on Ki67, the “IR-associated decrease in cellular proliferation capacity (Ki67)” value is “mitigating IR-associated decrease in cellular proliferation capacity”. Besides, the mitochondrial mass result in test [2] is on record as “restoring mitochondrial mass”. In addition, in test [3], the “mitochondrial function (ATP production per cell normalized to MitoTracker density)” value is “restoring”. Moreover, the cell motility result in test [4] was “improving cell motility”. Moreover, the “levels of the SASP factor IL-6 (mRNA)” value in the test on IL-6 (setting [5]) is reported as “decreasing levels of the SASP factor IL-6”. Besides, the “IR-associated increase in IL-6 level (mRNA)” value in the test on IL-6 (HDFs, 30 μM for 5 h prior to IR, 11 days after IR) is “mitigating IR-associated increases in levels of the SASP factors IL-6 and IL-8”. The “IR-associated increase in IL-8 level (mRNA)” value in the test with IL-8 was “mitigating IR-associated increases in levels of the SASP factors IL-6 and IL-8”.
